These results are taken from article PMC4184701 (Pharmacology Research & Perspectives, 2014).

Each structure is given as a SMILES string. Values joined by “and” are separate entries in the source; they are usually repeats but may differ in a detail not shown here. Equal entries are not always repeated. Where two headings read alike, the source gives them in different places. A value given as a limit tells only on which side of the number the result lay.

Data set [1] concerns hAChE-induced amyloid aggregation. The arrangement: method as in Piazzi et al. [2003], [2007]. Conditions: at 100 μmol/L concentration; ref Piazzi et al. [2003], [2007]; cited from earlier work.
Data set [2] concerns the target T1, Aβ1-42 (Homo sapiens, UniProt P05067).
T1 construct: 1,1,1,3,3,3-hexafluoro-2-propanol pretreated Aβ1-42 samples (Bachem AG, Switzerland); purchased Bachem AG, Switzerland
The data set can be described thus: biochemical. Conditions: ± SEM; 50 μmol/L Aβ, 30°C, 24 h, ThT; highest tested concentration 50 μmol/L; read-out: IC50 Aβ1-42 self-aggregation.

Data set [3] has as its system THP-1 cells. The data set can be described thus: Aβ1-42 oligomer binding to the cell surface (Congo red assay), THP-1 cells. The class given is cell-based, human. Conditions: compound 30 μmol/L, Aβ1-42 oligomers 5 μmol/L, 30 min cotreatment. Here is the method:
(§1) SH-SY5Y and THP-1 cells were seeded in 96-well plates at 5 × 10^3 cells/well and 5 × 10^4 cells/well, respectively, for 24 h. At the end of incubation, the medium was changed with a fresh one with Aβ1-42 oligomer (5 μmol/L) and various compounds at 30 μmol/L for 30 min and then washed twice with PBS. The residual Aβ1-42 oligomer cell complex was stained with 1 μmol/L of Congo red (CR) in PBS for 20 min and measured with a spectrophotometer (TECAN®, GENios) at 540 nm (bound CR). CR values are reported as percent increases in treated cells versus untreated cells.

Data set [4] deals with SH-SY5Y cells. The data set can be described thus: Aβ1-42 oligomer binding to the cell surface (Congo red assay), SH-SY5Y cells. Type of data set: cell-based, human. Conditions: compound 30 μmol/L, Aβ1-42 oligomers 5 μmol/L, 30 min cotreatment. Here is the method: as §1
In data set [5] the target is T2, BACE1 (Homo sapiens, UniProt P56817). The data set can be described thus: Inhibition of BACE1 (FRET assay). The class given is biochemical. Conditions: ± SEM, Panvera peptide substrate, pH 4.5.
Data set [6] deals with T3, BuChE derived from human serum (Homo sapiens, UniProt P06276).
T3 construct: BuChE derived from human serum (Sigma Chemical, Milan, Italy); purchased Sigma Chemical, Milan, Italy; host or cells: human serum
The data set can be described thus: biochemical. Conditions: ± SEM; 20 min preincubation at 37°C, pH 8.0; read-out: IC50 hBuChE. The class given is biochemical.

Data set [7] concerns SH-SY5Y cells. As to the kind of experiment: Aβ1-42 oligomer-induced cytotoxicity, MTT assay, SH-SY5Y cells. The class given is cell-based. Conditions: Homo sapiens; for IC50: 3 h, read-out: IC50 Aβ1-42 oligomer toxicity SH-SY5Y cells; for inhibition at 30 µM: read-out: toxicity inhibition.
The subject of data set [8] is THP-1 cells. The data set can be described thus: Aβ1-42 oligomer-induced cytotoxicity, MTT assay, THP-1 cells. Type of data set: cell-based. Conditions: Homo sapiens, read-out: IC50 Aβ1-42 oligomer toxicity THP-1 cells.
For data set [9], the system named is THP-1 cells. The data set can be described thus: Aβ-induced toxicity (Aβ1-42 oligomers, Aβ25-35), MTT assay, THP-1 cells. Type of data set: cell-based, human. Conditions: 1–30 μmol/L, Aβ 5 μmol/L, 3 h.
The target of data set [10] is human recombinant AChE (Homo sapiens, UniProt P22303). The data set can be described thus: biochemical. Conditions: ± SEM; 20 min preincubation at 37°C, pH 8.0; read-out: IC50 hAChE.
The test system of data set [11] is SH-SY5Y cells. The data set can be described thus: Total antioxidant activity in membrane and cytosolic fractions (ABTS decolorization). Conditions: SH-SY5Y treated 2 h, vs untreated cells. Type of data set: cell-based, human.
The test system of data set [12] is SH-SY5Y cells. As to the kind of experiment: t-BuOOH-induced intracellular ROS formation (DCFH-DA, DHE). Type of data set: cell-based, human. Conditions: 3–30 μmol/L, 3 h pretreatment, t-BuOOH 50 μmol/L. Here is the method:
As above, the intracellular hydrogen peroxide and superoxide anion formation induced by tert-butyl hydroperoxide (t-BuOOH) at SH-SY5Y cell level was determined using, respectively, the probes DCFH-DA and DHE. Briefly, SH-SY5Y cells were cultured in 96-well microtiter plates at 3 × 10^4 cells/well for 24 h. The medium was then removed and the cells were treated for 3 h with various concentrations of compounds (3–30 μmol/L) at 37°C. After treatment, the cells were washed with PBS and then incubated with DCFH-DA (5 μmol/L) or DHE (10 μmol/L) in PBS at 37°C in 5% CO2 for 30 min. After removal of the probes and further washing, the cells were incubated with t-BuOOH (50 μmol/L) in PBS for 30 min. At the end of incubation, the green or red fluorescence of the cells from each well was measured with a spectrofluorometer (TECAN®, GENios). The results are expressed as fold increases in intracellular ROS evoked by exposure to t-BuOOH.

The test system of data set [13] is SH-SY5Y cells. The data set can be described thus: Aβ25-35 peptide-induced cytotoxicity, MTT assay, SH-SY5Y cells. Conditions: 1–30 μmol/L, Aβ25-35 5 μmol/L, 3 h.
Data set [14] deals with SH-SY5Y cells. As to the kind of experiment: Aβ1-42 oligomer-induced intracellular ROS formation (DCFH-DA, DHE). The class given is cell-based, human. Conditions: 3–30 μmol/L, 3 h pretreatment, Aβ1-42 oligomers 5 μmol/L. Here is the method:
The intracellular hydrogen peroxide and superoxide anion formation induced by Aβ1-42 oligomer at SH-SY5Y cell level was determined using, respectively, the probe 2′,7′-dichlorodihydrofluorescein diacetate (DCFH-DA, λexc = 485 nm, λem = 535 nm), and dihydroethidium (DHE, λexc = 380 nm, λem = 445 nm). SH-SY5Y cells were cultured in BD Falcon™ 8-well Culture slides (surface area 0.7 cm^2/well) at 1 × 10^4 cells/well for 24 h. The cells were then treated for 3 h with various concentrations of compounds (3–30 μmol/L) at 37°C prior to the treatment of 3 h with Aβ1-42 oligomer (5 μmol/L). At the end of treatment, the cells were washed and incubated with DCFH-DA (5 μmol/L) or DHE (10 μmol/L) for 30 min in the dark. After removal of the probes, cells were washed with PBS and incubated with DMEM serum free for 1 h at 37°C. Intracellular ROS formation was measured under a fluorescence microscope (Zeiss Axio Imager M1). Fluorescence images were captured with an AxioVision image recording system computer. Four randomly selected areas with 50–100 cells in each were analyzed and the values obtained are expressed as fold increases in hydrogen peroxide and superoxide anion versus untreated cells.

For data set [15], the system named is THP-1 cells. As to the kind of experiment: Aβ1-42 oligomer-induced NO and TNFα release. Conditions: 30 μmol/L. The class given is cell-based, human. Here is the method: THP-1 cells were seeded in 96-well plates at 5 × 10^4 cells/well for 24 h. At the end of incubation, the medium was changed with a fresh one with AP2469 30 μmol/L for 3 h. The cells were then washed with PBS and incubated for a further 12 h with Aβ1-42 oligomer (5 μmol/L). The content of each well was then removed and centrifuged at 2500g for 10 min, and the supernatant was frozen at −20°C for the subsequent analysis of released NO and tumor necrosis factor alpha (TNFα). To determine the NO levels, 100 μL of supernatant was incubated with 100 μL of Griess reagent (Sigma Aldrich) in the dark at room temperature for 15 min. The intensity of the color that developed was then measured at 540 nm using a spectrophotometer (TECAN®, GENios). Values are reported as percent increases in treated cells versus untreated cells. The TNFα levels in 100 μL of supernatant were determined by Ray Bio® ELISA kit according to the manufacturer's instructions (Ray Biotech, Inc., GA). The concentration of TNFα levels was calculated from a TNFα standard curve standard of 25–6000 pg/mL and the values are reported as percent increases in treated cells versus untreated cells.

The target of data set [16] is T2, BACE1. Conditions: cited from earlier work.
[17] abbreviates: SH-SY5Y, ± SEM, 5 μmol/L Aβ1-42 oligomers, MTT, highest tested concentration 30 μmol/L.
[18] abbreviates: THP-1, ± SEM, 5 μmol/L Aβ1-42 oligomers, 3 h, MTT, highest tested concentration 30 μmol/L.

T2 sequence (P56817 46-501): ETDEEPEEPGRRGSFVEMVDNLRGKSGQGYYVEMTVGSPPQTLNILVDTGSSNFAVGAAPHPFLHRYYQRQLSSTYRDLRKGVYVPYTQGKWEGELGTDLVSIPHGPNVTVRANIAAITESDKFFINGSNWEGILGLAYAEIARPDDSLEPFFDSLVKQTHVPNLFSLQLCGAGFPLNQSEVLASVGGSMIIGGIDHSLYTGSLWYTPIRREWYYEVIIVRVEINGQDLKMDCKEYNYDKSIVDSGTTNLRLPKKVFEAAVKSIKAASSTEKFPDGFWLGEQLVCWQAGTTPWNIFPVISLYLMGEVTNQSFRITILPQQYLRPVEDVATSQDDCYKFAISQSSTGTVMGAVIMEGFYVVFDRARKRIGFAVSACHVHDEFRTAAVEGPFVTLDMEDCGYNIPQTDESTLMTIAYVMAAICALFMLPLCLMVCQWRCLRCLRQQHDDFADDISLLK
T1 sequence (P05067 672-713 limits assumed): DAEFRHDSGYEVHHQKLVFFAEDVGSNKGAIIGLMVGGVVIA
T3 sequence (P06276 29-602): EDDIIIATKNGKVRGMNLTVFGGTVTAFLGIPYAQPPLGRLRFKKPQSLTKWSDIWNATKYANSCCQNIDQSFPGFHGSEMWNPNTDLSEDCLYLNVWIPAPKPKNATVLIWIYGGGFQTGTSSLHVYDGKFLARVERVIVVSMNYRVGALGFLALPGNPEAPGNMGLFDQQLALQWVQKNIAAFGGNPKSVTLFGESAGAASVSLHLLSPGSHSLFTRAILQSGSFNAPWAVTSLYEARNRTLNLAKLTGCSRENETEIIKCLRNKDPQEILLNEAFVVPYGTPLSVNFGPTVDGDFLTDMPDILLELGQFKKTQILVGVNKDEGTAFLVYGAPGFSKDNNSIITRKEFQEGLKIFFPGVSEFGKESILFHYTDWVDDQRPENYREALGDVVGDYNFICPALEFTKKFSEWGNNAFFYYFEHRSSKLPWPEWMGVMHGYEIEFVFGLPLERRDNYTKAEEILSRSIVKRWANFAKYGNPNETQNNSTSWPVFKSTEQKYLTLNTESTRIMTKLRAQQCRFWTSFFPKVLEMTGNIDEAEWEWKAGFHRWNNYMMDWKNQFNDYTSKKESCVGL
Sequence of human recombinant AChE (P22303 32-614): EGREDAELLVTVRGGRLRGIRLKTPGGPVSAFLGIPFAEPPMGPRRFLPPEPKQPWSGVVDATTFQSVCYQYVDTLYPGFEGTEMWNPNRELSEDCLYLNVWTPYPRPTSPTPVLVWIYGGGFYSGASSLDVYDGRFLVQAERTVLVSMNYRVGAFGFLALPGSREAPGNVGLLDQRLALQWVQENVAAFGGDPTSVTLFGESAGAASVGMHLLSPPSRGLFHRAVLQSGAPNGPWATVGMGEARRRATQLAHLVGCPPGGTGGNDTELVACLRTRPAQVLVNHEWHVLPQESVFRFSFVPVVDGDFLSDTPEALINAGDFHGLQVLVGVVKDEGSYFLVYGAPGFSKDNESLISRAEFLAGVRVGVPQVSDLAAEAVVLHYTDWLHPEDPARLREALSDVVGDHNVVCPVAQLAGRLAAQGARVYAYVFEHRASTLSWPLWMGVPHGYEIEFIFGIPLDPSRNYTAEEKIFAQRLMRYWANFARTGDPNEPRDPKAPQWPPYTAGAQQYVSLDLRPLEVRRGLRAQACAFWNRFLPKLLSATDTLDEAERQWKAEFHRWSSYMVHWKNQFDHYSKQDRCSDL

`COc1cc2cc(-c3ccc(CN(C)Cc4ccccc4)cc3)c(=O)oc2cc1OC` [AP2238, 3-(4-{[Benzyl(methyl)amino]methyl}-phenyl)-6,7-dimethoxy-2H-2-chromenone]: the “inhibition of hAChE-induced amyloid aggregation” value in data set [1] is on record as 35%. In addition, the IC50 in [2] was > 50 µM.

On to `CCN(Cc1ccccc1)Cc1ccc(-c2cc3cc(OC)c(OC)cc3oc2=O)cc1` [AP2243], for which, in data set [3], the “binding of Aβ1-42 oligomers with THP-1 cells (CR assay)” value is reported as “did not modify”. Besides, the “binding of Aβ1-42 oligomers with SH-SY5Y cells (CR assay)” value in data set [4] is “did not modify”. The IC50 in data set [5] is 0.24 ± 0.03 µM; in data set [6], 118 ± 16 µM; in data set [2] it was > 50 µM; in data set [7] (setting [17]) it was > 30 µM; in data set [8] (setting [18]), > 30 µM. The “inhibition of hAChE-induced amyloid aggregation” value in data set [1] is 38%.

Take `CCN(Cc1ccccc1)Cc1ccc(-c2cc3cc(O)c(O)cc3oc2=O)cc1` [AP2469, 3-{4-[(Benzylethylamino)-methyl]phenyl}-6,7-dihydroxychromen-2-one]: the “binding of Aβ1-42 oligomers with THP-1 cells (CR assay)” value in data set [3] was “significantly reduced”. Further, the “Aβ-induced toxicity in THP-1 cells” value in [9] is reported as “significant inhibitor effects”. Moreover, the IC50 in data set [10] was 8.6 ± 0.21 µM; in data set [5], 6.5 µM and 6.49 µM; in data set [6] it was 124 ± 13 µM; in data set [2], 21.7 ± 3.4 µM; in data set [7] (setting [17]), 7.5 ± 0.72 µM; in data set [8] (setting [18]), 8.18 ± 0.51 µM. Further, the “binding of Aβ1-42 oligomers with SH-SY5Y cells (CR assay)” value in [4] is “significantly reduced”. Moreover, in data set [11] (3–30 μmol/L), the “total antioxidant activity (TAA), membrane fraction” value is listed as “significant only at the highest tested concentration”. Moreover, in data set [11] (all tested concentrations (3–30 μmol/L)), the “total antioxidant activity (TAA), cytosolic fraction” value was “significant TAA increase”. In addition, the “ROS formation induced by t-BuOOH” value in data set [12] is “significantly reduced”. Further, in data set [13], the “cytotoxicity elicited by Aβ25-35 peptide in SH-SY5Y cells” value is given as “dose-dependent decrease”. For the same compound, in data set [14], the “Aβ1-42 oligomer-induced hydrogen peroxide and superoxide anion formation” value is “significantly inhibited”. The inhibition at 30 µM in data set [7] (at 30 μmol/L, Aβ1-42 oligomers 5 μmol/L, SH-SY5Y cells) was 93%. Also, in data set [15] (ELISA), the “Aβ1-42 oligomer-induced TNFα release” value is on record as “inhibited”. Also, the “Aβ1-42 oligomer-induced NO release” value in data set [15] (Griess reagent) is recorded as “reduced”.

Take `COc1ccc2c3c1O[C@H]1C[C@@H](O)C=C[C@@]31CCN(C)C2` [Galantamine, reference compound]: the “cytotoxicity elicited by Aβ25-35 peptide in SH-SY5Y cells” value in data set [13] was “dose-dependent decrease”. The IC50 in [16] (not active at the highest tested concentration (5 μmol/L), ref Mancini et al. [2007], read-out: IC50 BACE1) is > 5 µM; in data set [2] it was > 50 µM; in data set [7] (SH-SY5Y), 7.99 ± 0.91 µM; in [8] (THP-1, 3 h), > 30 µM. In addition, in data set [7] (SH-SY5Y), the inhibition at 30 µM is 58%.

As for `c1ccc2c(NCCCCCCCNc3c4c(nc5ccccc35)CCCC4)c3c(nc2c1)CCCC3` [bis(7)-tacrine], in [16] (noncompetitive BACE1 inhibitor, ref Fu et al. [2008], read-out: BACE1 inhibitory activity), the IC50 was 7.5 µM.
